The values below come from patent US8399465B2, “Compounds with two fused bicyclic heteroaryl moieties as modulators of leukotriene A4 hydrolase” (Janssen Pharmaceutica NV, priority 2009, dated 2013).

Assay [1] relates to LTB4 production in murine blood (LTA4H). In words: LTB4 production by calcium ionophore-stimulated murine blood for LTA4H inhibitor activity. Conditions: Mus musculus; murine blood diluted 1 in 15, A23187 stimulated; single determination or average; mark after value = form tested: ′ free base, ″ hydrochloride, ^ formate; read-out: IC50. The format is cell-based, CD-1 mice. In outline:
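LTB4 was measured by ELISA in supernatants after calcium ionophore A23187 stimulation (final 7 μg/mL, 30 min, 37° C) of CD-1 mouse blood collected on heparin. Compound was preincubated with the blood for 15 min beforehand. Values come from one determination or average several.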

Assay [2] addresses T1, recombinant human LTA4 hydrolase (rhLTA4H) (Homo sapiens, UniProt P09960).
T1 construct: made in house; host or cells: Spodoptera frugiperda (Sf-9) cells, baculovirus (pFastBac1)
T1 sequence (P09960 1-611): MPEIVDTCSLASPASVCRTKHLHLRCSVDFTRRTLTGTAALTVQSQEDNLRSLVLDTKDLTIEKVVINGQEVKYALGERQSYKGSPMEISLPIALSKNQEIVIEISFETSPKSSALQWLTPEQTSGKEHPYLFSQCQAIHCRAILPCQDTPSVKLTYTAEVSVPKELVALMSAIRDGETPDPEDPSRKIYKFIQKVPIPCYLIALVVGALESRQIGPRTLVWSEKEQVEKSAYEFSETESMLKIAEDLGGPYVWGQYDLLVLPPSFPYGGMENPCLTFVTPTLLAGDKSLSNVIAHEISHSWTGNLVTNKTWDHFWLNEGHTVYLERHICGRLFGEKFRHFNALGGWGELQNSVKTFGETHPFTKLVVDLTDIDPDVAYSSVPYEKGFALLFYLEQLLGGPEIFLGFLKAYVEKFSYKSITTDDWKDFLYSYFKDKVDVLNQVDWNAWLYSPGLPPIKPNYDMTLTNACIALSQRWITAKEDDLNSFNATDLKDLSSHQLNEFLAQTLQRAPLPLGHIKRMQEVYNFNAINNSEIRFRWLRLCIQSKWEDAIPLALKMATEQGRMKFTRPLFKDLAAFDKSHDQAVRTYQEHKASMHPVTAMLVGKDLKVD
Nature of the assay: Recombinant human LTA4 hydrolase assay for LTA4 hydrolase inhibitor activity. The format is biochemical. As to conditions: rhLTA4H, LTB4 by immunoassay; single determination or average of two or more; mark after value = form tested: ′ free base, ″ hydrochloride, ^ formate; read-out: IC50. In outline:
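LTB4 formation, measured by enzyme immunoassay, was the read-out. The enzyme, recombinant human LTA4H expressed in Sf-9 insect cells (10 ng per reaction), was exposed to compound for 10 min at room temperature before hydrolysed-ester LTA4 substrate was added for 30 min. Enzyme-free negatives were included.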

Counter-ions that a name gives are not always drawn.

With `CC(=O)N1CCN(C(=O)c2coc3cc(Oc4nc5ncccc5s4)ccc23)CC1` [Example 380, 1-{4-[6-(Thiazolo[4,5-b]pyridin-2-yloxy)-benzofuran-3-carbonyl]-piperazin-1-yl}-ethanone], the values for the IC50 in assay [1] and in assay [2] were 35 nM and 7 nM, respectively.
On the same counts, the results for `Clc1ccc2sc3c(c2c1)CN(Cc1c[nH]c2cc(Oc4nc5ncccc5s4)ccc12)CC3` [Example 36, 8-Chloro-2-[6-(thiazolo[4,5-b]pyridin-2-yloxy)-1H-indol-3-ylmethyl]-1,2,3,4-tetrahydro-benzo[4,5]thieno[3,2-c]pyridine formate] are 423 nM and 77 nM.
On the same counts, the results for `c1csc(CNCc2coc3cc(Oc4nc5ncccc5s4)ccc23)c1` [Example 300, [6-(Thiazolo[4,5-b]pyridin-2-yloxy)-benzofuran-3-ylmethyl]-thiophen-2-ylmethyl-amine] are 150 nM and 20 nM.
The like results for `Cc1ccnc2nc(Oc3ccc4c(CN5CCOCC5)c[nH]c4c3)sc12` [Example 57, 7-Methyl-2-(3-morpholin-4-ylmethyl-1H-indol-6-yloxy)-thiazolo[4,5-b]pyridine] were, in that order, 444 nM and 93 nM.
Consider `NC(=O)C1CCN(Cc2c[nH]c3cc(Oc4nc5ccccc5s4)ccc23)CC1` [Example 21, 1-[6-(Benzothiazol-2-yloxy)-1H-indol-3-ylmethyl]-piperidine-4-carboxylic acid amide], for which the 50% inhibitory concentration (IC50) in assay [1] is 161 nM; in assay [2] it was 5 nM.
Take `O=C(C1CCN(Cc2c[nH]c3cc(Oc4nc5ccccc5s4)ccc23)CC1)N1CCCCC1` [Example 24, {1-[6-(Benzothiazol-2-yloxy)-1H-indol-3-ylmethyl]-piperidin-4-yl}-piperidin-1-yl-methanone]: the results for the IC50 in assay [1] and in assay [2] were 341 nM and 2 nM, respectively.
For `c1cnc2nc(Oc3ccc4oc(CN5CCCCC5)cc4c3)sc2c1` [Example 86, 2-(2-Piperidin-1-ylmethyl-benzofuran-5-yloxy)-thiazolo[4,5-b]pyridine], the half-inhibitory concentration (IC50) turned out to be 85 nM in assay [1] and 68 nM in assay [2].
As for `c1ccc2sc(Oc3ccc4c(CN5CCCC5)c[nH]c4c3)nc2c1` [Example 1, 2-(3-Pyrrolidin-1-ylmethyl-1H-indol-6-yloxy)-benzothiazole], the IC50 in assay [1] was 68 nM; in assay [2], 12 nM.
Regarding `c1ccc2sc(Oc3ccc4c(CN5CCCCC5)c[nH]c4c3)nc2c1` [Example 2, 2-(3-Piperidin-1-ylmethyl-1H-indol-6-yloxy)-benzothiazole], the results for the IC50 in assay [1] and in assay [2] were 78 nM and 19 nM, respectively.
On the same counts, the results for `O=C(O)C1CCN(CCc2coc3cc(Oc4nc5ccccc5s4)ccc23)CC1` [Example 80, 1-{2-[6-(Benzothiazol-2-yloxy)-benzofuran-3-yl]-ethyl}-piperidine-4-carboxylic acid] are 350 nM and 48 nM.
For `O=C1Cc2ccc(Cl)cc2N1Cc1coc2cc(Oc3nc4ncccc4s3)ccc12` [Example 402, 6-Chloro-1-[6-(thiazolo[4,5-b]pyridin-2-yloxy)-benzofuran-3-ylmethyl]-1,3-dihydro-indol-2-one], the half-maximal inhibitory concentration (IC50) in assay [1] worked out at 400 nM; in assay [2], 32 nM.
Turning to `CC(C)CN1CCN(Cc2coc3cc(Oc4nc5ncccc5s4)ccc23)CC1` [Example 308, 2-[3-(4-Isobutyl-piperazin-1-ylmethyl)-benzofuran-6-yloxy]-thiazolo[4,5-b]pyridine formate], the IC50 in assay [1] is 71 nM; in assay [2], 9 nM.
On the same counts, the results for `CC(=O)N1C[C@H]2CC[C@@H](C1)N2Cc1cc2cc(Oc3nc4cnccc4s3)ccc2o1` [Example 206, meso-1-{8-[5-(Thiazolo[4,5-c]pyridin-2-yloxy)-benzofuran-2-ylmethyl]-3,8-diaza-bicyclo[3.2.1]oct-3-yl}-ethanone] are 340 nM and 147 nM.
The like results for `CN(C)Cc1coc2cc(Oc3nc4ncccc4s3)ccc12` [Example 361, Dimethyl-[6-(thiazolo[4,5-b]pyridin-2-yloxy)-benzofuran-3-ylmethyl]-amine] were, in that order, 10 nM and 20 nM.
Turning to `NC(=O)C1CCN(Cc2cc3cc(Oc4nc5ccccc5s4)ccc3o2)CC1` [Example 105, 1-[5-(Benzothiazol-2-yloxy)-benzofuran-2-ylmethyl]-piperidine-4-carboxylic acid amide], the figures for the IC50 in assay [1] and in assay [2] were 488 nM and 97 nM, respectively.
With `CC(=O)NC1CCN(Cc2coc3cc(Oc4nc5ncc(F)cc5s4)ccc23)CC1` [Example 255, N-{1-[6-(6-Fluoro-thiazolo[4,5-b]pyridin-2-yloxy)-benzofuran-3-ylmethyl]-piperidin-4-yl}-acetamide formate], the figures for the IC50 in assay [1] and in assay [2] were 72 nM and 31 nM, respectively.
As to `CC(=O)NC1CCN(Cc2coc3cc(Oc4nc5nccnc5s4)ccc23)CC1` [Example 253, N-{1-[6-(Thiazolo[4,5-b]pyrazin-2-yloxy)-benzofuran-3-ylmethyl]-piperidin-4-yl}-acetamide formate], the IC50 in assay [1] turned out to be 91 nM; in assay [2], 39 nM.
For the compound `OC1(c2ccc(Cl)cc2)CCN(Cc2coc3cc(Oc4nc5ncccc5s4)ccc23)CC1` [Example 347, 4-(4-Chloro-phenyl)-1-[6-(thiazolo[4,5-b]pyridin-2-yloxy)-benzofuran-3-ylmethyl]-piperidin-4-ol], the values for the IC50 in assay [1] and in assay [2] were 130 nM and 24 nM, respectively.
On to `CN(Cc1ccccc1)Cc1cc2cc(Oc3nc4ncccc4s3)ccc2o1` [Example 114, Benzyl-methyl-[5-(thiazolo[4,5-b]pyridin-2-yloxy)-benzofuran-2-ylmethyl]-amine], for which the IC50 in assay [1] was 85 nM; in assay [2], 15 nM.
Turning to `CNC(=O)C1CCN(Cc2c[nH]c3cc(Oc4nc5ccccc5s4)ccc23)CC1` [Example 22, 1-[6-(Benzothiazol-2-yloxy)-1H-indol-3-ylmethyl]-piperidine-4-carboxylic acid methylamide], the figures for the 50% inhibitory concentration (IC50) in assay [1] and in assay [2] were 79 nM and 2 nM, respectively.
As to `O=C(O)C1CCN(Cc2coc3cc(Oc4nc5ncccc5s4)ccc23)CC1` [Example 249, 1-[6-(Thiazolo[4,5-b]pyridin-2-yloxy)-benzofuran-3-ylmethyl]-piperidine-4-carboxylic acid], the half-maximal inhibitory concentration (IC50) worked out at 54 nM in assay [1] and 12 nM in assay [2].
`CC(=O)NC1CCN(Cc2coc3cc(Oc4nc5nccc(C)c5s4)ccc23)CC1` [Example 252, N-{1-[6-(7-Methyl-thiazolo[4,5-b]pyridin-2-yloxy)-benzofuran-3-ylmethyl]-piperidin-4-yl}-acetamide formate]: the IC50 turned out to be 48 nM in assay [1] and 24 nM in assay [2].
On the same counts, the results for `CCCNCc1coc2cc(Oc3nc4ncccc4s3)ccc12` [Example 303, Propyl-[6-(thiazolo[4,5-b]pyridin-2-yloxy)-benzofuran-3-ylmethyl]-amine formate] are 15 nM and 11 nM.
The like results for `c1cnc2nc(Oc3ccc4c(CN5CCCC6CCCCC65)coc4c3)sc2c1` (stereo not drawn) [Example 267, 1-[6-(Thiazolo[4,5-b]pyridin-2-yloxy)-benzofuran-3-ylmethyl]-decahydro-quinoline formate] were, in that order, 44 nM and 9 nM.
As for `CCOC(=O)C1CCN(Cc2c[nH]c3cc(Oc4nc5cccnc5s4)ccc23)CC1` [Example 140, 1-[6-(Thiazolo[5,4-b]pyridin-2-yloxy)-1H-indol-3-ylmethyl]-piperidine-4-carboxylic acid ethyl ester], the figures for the IC50 in assay [1] and in assay [2] were 8510 nM and 21 nM, respectively.
The like results for `CC(=O)N[C@H]1C[C@H]2CC[C@@H](C1)N2Cc1c[nH]c2cc(Oc3nc4ncccc4s3)ccc12` [Example 18, meso-endo-N-{8-[6-(Thiazolo[4,5-b]pyridin-2-yloxy)-1H-indol-3-ylmethyl]-8-aza-bicyclo[3.2.1]oct-3-yl}-acetamide] were, in that order, 301 nM and 1 nM.
As for `O=C1C[C@@H](O)CN1C1CCN(Cc2c[nH]c3cc(Oc4nc5ccccc5s4)ccc23)CC1` [Example 44, (4R)-1-{1-[6-(Benzothiazol-2-yloxy)-1H-indol-3-ylmethyl]-piperidin-4-yl}-4-hydroxy-pyrrolidin-2-one], the figures for the IC50 in assay [1] and in assay [2] were 222 nM and 6 nM, respectively.
